These results are taken from patent publication US20220192984A1, “PHARMACEUTICAL COMPOSITIONS COMPRISING OTIC THERAPEUTIC AGENTS AND RELATED METHODS” (Frequency Therapeutics, Inc., priority 2018, published 2022).

Read-outs that look alike come from different tables or passages of the source.

The target of series [1] is gamma secretase. To be noted: cited from earlier work; for Lit cell conc: Table 23.
Series [2] can be described thus: Perilymph Conc. listed for agents (Tables 14-25). To be noted: Table 19.
[3] abbreviates: Table 23, Aβ40, read-out: Lit cell conc IC50, Aβ40.
[4] abbreviates: Table 23, Aβ42, read-out: Lit cell conc IC50, Aβ42.

As a reminder, the IC50 is the concentration needed to halve the response being measured. On to `NC(=O)[C@@H](CCC(F)(F)F)N(Cc1ccc(-c2ncon2)cc1F)S(=O)(=O)c1ccc(Cl)cc1` [Avagacestat/BMS-708163], for which the figures for the IC50 in series [1] (setting [3]) and in series [1] (setting [4]) were 0.3 nM and 0.27 nM, respectively.

Take `C[C@H](c1ccc(F)cc1CCCC(=O)O)N(c1cc(F)ccc1F)S(=O)(=O)c1ccc(Cl)cc1` [BMS 299897]: the IC50 is 7.4 nM in series [1] (setting [3]) and 7.9 nM in series [1] (setting [4]).

On to `COc1nc(-c2cc(C)c(N[C@@H](C)c3ccc(F)cc3)nn2)ccc1-n1cnc(C)c1` [BPN-15606], for which the results for the IC50 in series [1] (setting [3]) and in series [1] (setting [4]) were 17 nM and 7 nM, respectively.

Broadly, the EC50 is the concentration that produces a half-maximal response. With `O=S(=O)(N[C@H](CO)C(C(F)(F)F)C(F)(F)F)c1ccc(Cl)s1` [Begacestat/GSI-953], the half-maximal effective concentration (EC50) was 14.8 nM in series [1] (Table 23, Aβ40, in cells, read-out: Lit cell conc EC50, lowers Aβ40) and 12.4 nM in series [1] (Table 23, Aβ42, in cells, read-out: Lit cell conc EC50, lowers Aβ42).

For the compound `O=C(O)C1(c2ccc(-c3ccc(Cl)c(Cl)c3)c(F)c2)CC1` [CHF5074], in series [1] (setting [3]), the IC50 was 18400 nM.

Consider `CC(C(=O)O)c1ccc2c(c1)[nH]c1ccc(Cl)cc12` (stereo not drawn) [Carprofen], for which the Lit cell conc in series [1] was 76 µM.

Regarding `C[C@H](NC(=O)CCC(F)(F)F)C(=O)N[C@@H]1C(=O)N(CCO)c2ncccc2-c2ccccc21` [Crenigacestat LY 3039478], in series [1] (Table 23, in most of the tumor cell lines, read-out: Lit cell conc IC50), the IC50 is approximately 1 nM.

Turning to `C[C@H](NC(=O)Cc1cc(F)cc(F)c1)C(=O)N[C@H](C(=O)OC(C)(C)C)c1ccccc1` [DAPT], the IC50 in series [1] (Table 23, neuronal culture, Aβ42, read-out: Lit cell conc IC50, Aβ42) was 200 nM; in series [1] (Table 23, neuronal culture, total Aβ, read-out: Lit cell conc IC50, total Aβ) it was 115 nM.

Turning to `COc1ccc2c(c1)c(CC(=O)O)c(C)n2C(=O)c1ccc(Cl)cc1` [Indomethacin], the Lit cell conc in series [1] was 25 to 50 µM.

On to `COc1oc(=O)c2cc(N)ccc2c1Cl` [JLK 6], for which the Lit cell conc in series [1] is 30 µM.

In the case of `CC(C)C[C@H](C(=O)O)c1cc(-c2ccc(C(F)(F)F)cc2)cc(-c2ccc(C(F)(F)F)cc2)c1` [JNJ-40418677], in series [1], the Lit cell conc was 0.18 to 0.2 µM.

On to `O=C(O)CC[C@H]1CC[C@@](c2cc(F)ccc2F)(S(=O)(=O)c2ccc(Cl)cc2)CC1` [MK-0572], for which the IC50 in series [1] (Table 23, SH-SY5Y cells, read-out: Lit cell conc IC50) is 5 nM.

Turning to `O=S(=O)(NC1CCC(c2cc(F)ccc2F)(S(=O)(=O)c2ccc(Cl)cc2)CC1)C(F)(F)F` (stereo not drawn) [MRK 560], in series [1], the Lit cell conc was 0.00065 µM.

With `CCc1cc(Nc2nc(-c3ccc(-n4cnc(C)c4)c(F)c3)cs2)c(C)cc1C` [NGP 555], the Lit cell conc in series [1] was 0.01 µM.

In the case of `CC(C)[C@H](O)C(=O)N[C@@H](C)C(=O)N[C@@H]1C(=O)N(C)CCc2ccccc21` [Semagacestat LY 450139], the IC50 in series [1] (Table 23, Aβ38, read-out: Lit cell conc IC50, Aβ38) was 12 nM; in series [1] (setting [3]), 12.1 nM; in series [1] (setting [4]), 10.9 nM.

For `CSc1ccc(/C=C2/C(C)=C(CC(=O)O)c3cc(F)ccc32)cc1` [Suldinac sulfide], the Lit cell conc in series [1] was 34 µM.

Regarding `Cc1cc(C)c(CNC(=O)c2cc(Cl)c3c(c2C)O[C@@](C)([C@H]2CC[C@H](N(C)C)CC2)O3)c(=O)[nH]1` [Valemetostat], the “Perilymph Conc” value in series [2] lay in the range of 10 to 1000 nM.
